From ChEMBL document CHEMBL1201862, “PubChem BioAssay data set” (2004) come the findings set out here.

Some test systems named below: 786-0; BT-549; COLO 205; DU-145; HCC 2998; HOP-92; HT-29; Hs-578T; MDA-MB-231; MDA-MB-435; NCI-H460; OVCAR-5; OVCAR-8; SNB-19; SW-620; TK-10; U-251; NCI-H226; RXF 393.
Common to all, as to test: NCI anticancer screen, dose series, 48 h

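How tested: cells in 96-well plates exposed to compound for 48 hours at five concentrations. At the GI50, growth is halved.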 The source made the active and inactive calls. Cut-off read from the data, not from the text of the source: active = GI50 up to about 1.1 µM and inactive = higher. Bridge positions count the residues as written; N and C are the ends. Square brackets hold non-standard residues; d marks the D form. Peptide text beside a SMILES is read from it. * marks the point of attachment. Cya = N[CH](CS(=O)(=O)O)C(=O)O; X49 = CC(C)CCCCCCCC(O)CC(=O)*; GABA = NCCCC(=O)O

In the case of `O=C(NS(=O)(=O)Nc1ccc(Cl)cc1)OCc1ccc(Cl)cc1Cl`, the GI50 in the assay with 786-0 was 34.6 µM (inactive); in the assay on BT-549, 28.4 µM (inactive); in the assay on COLO 205, 16.7 µM (inactive); in the assay with DU-145, 21.3 µM (inactive); with HCC 2998, 12.1 µM (inactive); in the assay on HOP-92, 24.7 µM (inactive). Besides, the GI50 with HT-29 is 20.5 µM (inactive); in the assay with Hs-578T, 14.2 µM (inactive); with MDA-MB-231, 23.3 µM (inactive); in the assay with MDA-MB-435 it was 22.1 µM (inactive); with NCI-H460 it was 13.4 µM (inactive); in the assay on OVCAR-5, 24.2 µM (inactive). For the same molecule, the GI50 in the assay on OVCAR-8 is 31.3 µM (inactive); in the assay with SNB-19, 18.6 µM (inactive); in the assay with SW-620, 33.3 µM (inactive); in the assay with TK-10, 16 µM (inactive); with U-251, 28.6 µM (inactive).
For the molecule `N/C(=N\O)N/N=C/c1cc(I)cc(I)c1O`, the GI50 with 786-0 is 22.2 µM (inactive); in the assay on BT-549 it was 47.4 µM (inactive); with COLO 205, 27 µM (inactive); in the assay with DU-145, 31.6 µM (inactive); in the assay with HCC 2998, 61.9 µM (inactive); in the assay with HT-29 it was 46.7 µM (inactive). Moreover, the GI50 in the assay with Hs-578T is > 100 µM (inactive); with MDA-MB-231 it was 54.8 µM (inactive); in the assay with MDA-MB-435 it was 69.5 µM (inactive); with NCI-H226, 0.627 µM (active); in the assay with NCI-H460, 35.2 µM (inactive); in the assay with OVCAR-5 it was 79.1 µM (inactive). Moreover, the GI50 is 27.9 µM (inactive) in the assay with OVCAR-8; 24.5 µM (inactive) with RXF 393; 49.5 µM (inactive) in the assay with SNB-19; > 100 µM (inactive) in the assay with SW-620; 57.7 µM (inactive) in the assay on TK-10; 34.8 µM (inactive) with U-251.
As to `CCOC(=O)/C(C(=O)Nc1ccc(F)cc1)=C(/N)N1CCCC1`, the GI50 in the assay on 786-0 was > 100 µM (inactive); with BT-549 it was 92.9 µM (inactive); in the assay on COLO 205 it was > 100 µM (inactive); in the assay with DU-145, > 100 µM (inactive); in the assay on HCC 2998, > 100 µM (inactive); in the assay with HT-29, > 100 µM (inactive). The GI50 in the assay on Hs-578T, in the assay with MDA-MB-231, in the assay with MDA-MB-435, with NCI-H226, in the assay on NCI-H460 and in the assay on OVCAR-5 was > 100 µM (inactive) throughout. Also, the GI50 in the assay on OVCAR-8, in the assay with RXF 393, with SNB-19, in the assay on SW-620, in the assay on TK-10 and in the assay with U-251 was > 100 µM (inactive) in each case.
With `CN1C(=O)N(C)C(O)C(Cl)(Br)C1=O` (configuration not stated), the GI50 with 786-0, with BT-549, in the assay on COLO 205, with DU-145, in the assay on HCC 2998 and in the assay on HT-29 was > 100 µM (inactive) in each case. Moreover, the GI50 in the assay on Hs-578T is > 100 µM (inactive); in the assay on MDA-MB-231, > 100 µM (inactive); in the assay on MDA-MB-435 it was > 100 µM (inactive); with NCI-H226, > 100 µM (inactive); in the assay with NCI-H460 it was > 100 µM (inactive); with OVCAR-5 it was 0.182 µM (active). Also, the GI50 in the assay with OVCAR-8, in the assay with RXF 393, in the assay with SNB-19, in the assay on SW-620, in the assay with TK-10 and in the assay with U-251 was > 100 µM (inactive) throughout.
With `CC(Br)C(=O)c1ccc2cc(Br)c3ccccc3c2c1` (configuration not stated), the GI50 with 786-0 is 3.34 µM (inactive); in the assay with BT-549 it was 15.1 µM (inactive); in the assay with DU-145, 16.5 µM (inactive); with HCC 2998, 15.7 µM (inactive); in the assay on HOP-92, 16.4 µM (inactive); in the assay on HT-29, 17.1 µM (inactive). Also, the GI50 with Hs-578T was 23.1 µM (inactive); in the assay on MDA-MB-231, 16.3 µM (inactive); with MDA-MB-435 it was 14.5 µM (inactive); in the assay with NCI-H460, 16 µM (inactive); with OVCAR-5, 17 µM (inactive); in the assay with OVCAR-8, 14 µM (inactive). Besides, the GI50 in the assay on RXF 393 is 15.4 µM (inactive); with SNB-19, 17.4 µM (inactive); with SW-620 it was 6.01 µM (inactive); in the assay with TK-10 it was 19 µM (inactive); in the assay with U-251, 13.7 µM (inactive).
For `CN(c1ccccc1Cl)S(=O)(=O)c1ccccc1[N+](=O)[O-]`, the GI50 in the assay on 786-0 was 58.9 µM (inactive); in the assay with BT-549 it was 22.6 µM (inactive); in the assay on COLO 205 it was 34.2 µM (inactive); in the assay on DU-145, 91.6 µM (inactive); in the assay on HCC 2998 it was 34.7 µM (inactive); in the assay on HT-29, 34.3 µM (inactive). Further, the GI50 is > 100 µM (inactive) in the assay with Hs-578T; 37.2 µM (inactive) with MDA-MB-231; 28.7 µM (inactive) in the assay with MDA-MB-435; 41.5 µM (inactive) in the assay on NCI-H226; 33.9 µM (inactive) in the assay with NCI-H460; 30.6 µM (inactive) in the assay on OVCAR-5. Moreover, the GI50 is 56.8 µM (inactive) in the assay with OVCAR-8; 29 µM (inactive) in the assay with RXF 393; 46.9 µM (inactive) in the assay with SNB-19; 78.9 µM (inactive) in the assay on SW-620; 82 µM (inactive) with TK-10; 40.6 µM (inactive) with U-251.
As for `CCOC(=O)C1c2[nH]c3ccccc3c2CCN1C(=O)c1ccco1` (configuration not stated), the GI50 with 786-0, with BT-549, with COLO 205, in the assay with DU-145, in the assay with HCC 2998 and in the assay on HOP-92 was > 10 µM (inactive) throughout. The GI50 in the assay with HT-29, in the assay with Hs-578T, in the assay on MDA-MB-231, in the assay with MDA-MB-435, in the assay with OVCAR-8 and in the assay with SNB-19 was > 10 µM (inactive) throughout. Besides, the GI50 with SW-620, with TK-10 and with U-251 was > 10 µM (inactive) throughout.
As for `CC(C)CCCCCCCC(O)CC(=O)NC(CS(=O)(=O)O)C(=O)NC(CC(C)C)C(=O)NCCCC(=O)NC(Cc1c[nH]cn1)C(=O)NC(C)C(=O)NC1C(=O)NC(C(C)O)C(=O)NC(Cc2c[nH]cn2)C(=O)NC(C)C(=O)NC(C(C)O)C(=O)OC1C` (configuration not stated) (X49-[Cya]L[GABA]HATTHAT; ester 6-C; configuration not given here), the GI50 with 786-0, in the assay with BT-549, with COLO 205, with DU-145, in the assay with HCC 2998 and with HOP-92 was > 25 µM (inactive) in each case. Also, the GI50 in the assay on HT-29, in the assay with Hs-578T, in the assay with MDA-MB-231, with MDA-MB-435, with NCI-H226 and in the assay with NCI-H460 was > 25 µM (inactive) throughout. In addition, the GI50 in the assay with OVCAR-5, in the assay on OVCAR-8, in the assay on SNB-19, in the assay on SW-620, with TK-10 and in the assay with U-251 was > 25 µM (inactive) each time.
Take `NC(Cc1ccc(OCc2ccccc2)cn1)C(=O)O` (configuration not stated): the GI50 in the assay on 786-0, in the assay with BT-549, in the assay on COLO 205, with DU-145, in the assay with HCC 2998 and with HT-29 was > 100 µM (inactive) in each case. For the same molecule, the GI50 with Hs-578T, in the assay on MDA-MB-231, in the assay with MDA-MB-435, with NCI-H226, in the assay on NCI-H460 and in the assay on OVCAR-5 was > 100 µM (inactive) throughout. Moreover, the GI50 in the assay with OVCAR-8, with RXF 393, in the assay with SNB-19, in the assay with SW-620, with TK-10 and in the assay on U-251 was > 100 µM (inactive) each time.
For `COc1cc(C2C3=C(COC3=O)OC(C)(C)Oc3cc4c(cc32)OCO4)cc(OC)c1O` (configuration not stated), the GI50 in the assay on 786-0 was 1.12 µM (active); in the assay with BT-549, 12.9 µM (inactive); with COLO 205, 2.44 µM (inactive); with DU-145 it was 1.39 µM (inactive); with HCC 2998 it was 2.27 µM (inactive); in the assay with HOP-92 it was 0.392 µM (active). Further, the GI50 was 2.19 µM (inactive) with HT-29; 1.56 µM (inactive) in the assay on Hs-578T; 0.76 µM (active) in the assay on MDA-MB-231; 0.217 µM (active) in the assay on MDA-MB-435; 0.643 µM (active) in the assay with NCI-H460; 3.58 µM (inactive) in the assay on OVCAR-5. Moreover, the GI50 in the assay with OVCAR-8 was 0.964 µM (active); with RXF 393 it was 0.122 µM (active); in the assay with SNB-19 it was 1.33 µM (inactive); with SW-620, 0.608 µM (active); with U-251, 0.966 µM (active).
Regarding `COc1cccc(C(=O)O[C@H]2[C@@H]3[C@]4(OC(C)=O)CO[C@@H]4C[C@H](O)[C@@]3(C)C(=O)[C@H](OC(C)=O)C3=C(C)[C@@H](OC(=O)[C@H](O)[C@@H](NC(=O)OC(C)(C)C)c4ccco4)C[C@]2(O)C3(C)C)c1`, the GI50 with 786-0 is 0.00522 µM (active); with BT-549, 0.0556 µM (active); in the assay on COLO 205, < 0.00375 µM (active); with DU-145, < 0.00375 µM (active); with HCC 2998, < 0.00375 µM (active); with HT-29, < 0.00375 µM (active). Also, the GI50 in the assay on Hs-578T is < 0.00375 µM (active); in the assay with MDA-MB-231 it was < 0.00375 µM (active); in the assay with MDA-MB-435, < 0.00375 µM (active); with NCI-H226, 0.36 µM (active); in the assay with NCI-H460, < 0.00375 µM (active); in the assay on OVCAR-5, 0.147 µM (active). Also, the GI50 in the assay with OVCAR-8 is < 0.00375 µM (active); in the assay with RXF 393, 0.00726 µM (active); with SNB-19, 0.133 µM (active); with SW-620, < 0.00375 µM (active); in the assay on TK-10 it was 0.00527 µM (active); with U-251, < 0.00375 µM (active).
